Laboratory results: ChEMBL document CHEMBL2040802, “Synthesis and pharmacological activity of N-(2,2-dimethyl-3,4-dihydro-2H-1-benzopyran-4-yl)-4H-1,2,4-benzothiadiazine-3-carboxamides 1,1-dioxides on rat uterus, rat aorta and rat pancreatic β-cells” (Eur J Med Chem, 2012)

Experiments:
Aorta = assay: Myorelaxant activity in Wistar rat aorta rings assessed as inhibition of KCl-induced contraction; format: functional, tissue-based
[1] = Inhibition of glucose-induced insulin secretion from Wistar rat pancreatic islet assessed as residual insulin release at 50 uM after 90 mins by radiometric analysis; format: functional
[2] = Myorelaxant effect in oxytoxin-induced Wistar rat uterus smooth muscle assessed as residual contractile activity by continuous superfusion of oxytocin at 10 uM; format: functional
[3] = Myorelaxant effect in oxytoxin-induced Wistar rat uterus smooth muscle assessed as residual contractile activity by continuous superfusion of oxytocin at 100 uM; format: functional
[4] = Myorelaxant effect in oxytoxin-induced Wistar rat uterus smooth muscle assessed as residual contractile activity by continuous superfusion of oxytocin at 50 uM; format: functional

Row | SMILES | EC50 (Aorta) [µM] | Activity [1] [%] | Activity [2] [%] | Activity [3] [%] | Activity [4] [%]
1 | CC1(C)CC(NC(=O)C2=NS(=O)(=O)c3ccccc3N2)c2cc(F)ccc2O1 (centres undefined) | > 30 | 77.3 | 123.7 | 76.8 | 97.9
2 | Cc1ccc2c(c1)S(=O)(=O)N=C(C(=O)NC1CC(C)(C)Oc3ccc(F)cc31)N2 (centres undefined) | > 30 | 96.9 | 116.6 | 124.4 | 132.4
3 | CC1(C)CC(NC(=O)C2=NS(=O)(=O)c3ccccc3N2)c2cc(Br)ccc2O1 (centres undefined) | > 30 | 86.7 | 60.1 | 19.9 | 44.3
4 | Cc1ccc2c(c1)S(=O)(=O)N=C(C(=O)NC1CC(C)(C)Oc3ccc(Br)cc31)N2 (centres undefined) | > 30 | 91.4 | 76.8 | 6.6 | 44.5
5 | CC1(C)CC(NC(=O)C2=NS(=O)(=O)c3ccccc3N2)c2cc([N+](=O)[O-])ccc2O1 (centres undefined) | > 30 | 77.9 | 96.8 | 34.7 | 62.4
6 | CC1(C)CC(NC(=O)C2=NS(=O)(=O)c3cc(Cl)ccc3N2)c2cc([N+](=O)[O-])ccc2O1 (centres undefined) | > 30 | 77 | 97.9 | 34.7 | 70.9
7 | Cc1ccc2c(c1)S(=O)(=O)N=C(C(=O)NC1CC(C)(C)Oc3ccc([N+](=O)[O-])cc31)N2 (centres undefined) | > 30 | 75.7 | 103.9 | 90.6 | 94.9
8 | CC1(C)Oc2ccc(C#N)cc2[C@@H](N2CCCC2=O)[C@@H]1O (relative stereo) [LEVCROMAKALIM] | – | 77.2 | – | – | –
9 | CC1=Nc2ccc(Cl)cc2S(=O)(=O)N1 [DIAZOXIDE] | – | 28.8 | 93.8 | 67.7 | 76.3
10 | CC(N/C(=N\C#N)Nc1ccncc1)C(C)(C)C (centres undefined) [PINACIDIL ANHYDROUS] | – | 92.1 | 58.1 | 38.1 | 35.5
